Laboratory results as given in article PMC8948245, “Mechanistic insights into the regulation of plant phosphate homeostasis by the rice SPX2 – PHR2 complex” (Nature Communications, 2022).
Where a chain is given by its changes, count along the chain named. Names and notes keep the numbering of the source.

How the values were obtained:
AtSPX4 = target: T1, AtSPX4 (Arabidopsis thaliana, UniProt Q94A21); assay: analytical SEC (profile shift with InsP6); assay type: binding; conditions: pH 8.0, 150 mM NaCl
T1 construct: gene SPX4; full-length, N-terminal 6xHis tag removed by drICE protease; E. coli BL21(DE3)
T1 sequence (Q94A21 1-318): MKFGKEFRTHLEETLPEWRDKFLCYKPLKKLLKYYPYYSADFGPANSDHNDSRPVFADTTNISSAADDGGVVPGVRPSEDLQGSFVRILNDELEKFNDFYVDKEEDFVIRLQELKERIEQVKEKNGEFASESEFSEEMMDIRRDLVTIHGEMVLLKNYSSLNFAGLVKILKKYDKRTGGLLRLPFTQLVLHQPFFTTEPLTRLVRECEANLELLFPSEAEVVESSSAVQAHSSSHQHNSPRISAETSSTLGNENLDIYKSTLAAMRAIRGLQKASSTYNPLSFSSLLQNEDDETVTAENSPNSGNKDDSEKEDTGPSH

[1] = target: T2, SPX2^1–280/PHR2^225–362 (rice) (Oryza sativa, UniProt Q6Z784, K143A/K147A); assay: co-expression coupled Ni-NTA pull-down (InsP6-dependent SPX2-PHR2 association); assay type: biochemical; conditions: 1 mM InsP6, pH 8.0, 150 mM NaCl; indirect read-out
T2 construct: untagged full-length SPX2 (residues 1-280) co-expressed with 8xHis-tagged PHR2 225-362 in E. coli; 2:2 complex; with Protein PHOSPHATE STARVATION RESPONSE 2

OsSPX1 = target: T3, OsSPX1 (Oryza sativa, UniProt Q69XJ0); assay: analytical SEC (profile shift with InsP6); assay type: binding; conditions: pH 8.0, 150 mM NaCl
T3 construct: gene SPX1; full-length, N-terminal 6xHis tag removed by drICE protease; E. coli BL21(DE3)
T3 sequence (Q69XJ0 1-295): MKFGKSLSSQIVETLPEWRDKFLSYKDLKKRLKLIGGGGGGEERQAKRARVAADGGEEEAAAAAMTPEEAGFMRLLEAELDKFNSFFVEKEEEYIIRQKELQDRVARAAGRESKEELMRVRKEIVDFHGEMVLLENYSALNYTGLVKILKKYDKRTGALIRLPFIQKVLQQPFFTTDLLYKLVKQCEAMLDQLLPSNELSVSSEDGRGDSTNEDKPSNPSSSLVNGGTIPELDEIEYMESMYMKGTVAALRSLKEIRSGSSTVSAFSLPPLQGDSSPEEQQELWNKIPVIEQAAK

OsSPX2^1-267/Δ47-64 = target: T4, OsSPX2^1-267/Δ47-64 (Oryza sativa, UniProt Q6Z784, DEL47-64); assay: analytical SEC and AUC (change of oligomeric state); assay type: binding; conditions: AUC with or without 1 mM InsP6, pH 8.0, 150 mM NaCl, 18 °C; no PHR2
T4 construct: gene SPX2; residues 1-267 lacking 47-64, C-terminal 8xHis tag, excess SPX2 separated from co-expressed PHR2 231-362; E. coli; monomer with InsP6
T4 sequence (Q6Z784 with tags, fused parts or gaps DEL47-64): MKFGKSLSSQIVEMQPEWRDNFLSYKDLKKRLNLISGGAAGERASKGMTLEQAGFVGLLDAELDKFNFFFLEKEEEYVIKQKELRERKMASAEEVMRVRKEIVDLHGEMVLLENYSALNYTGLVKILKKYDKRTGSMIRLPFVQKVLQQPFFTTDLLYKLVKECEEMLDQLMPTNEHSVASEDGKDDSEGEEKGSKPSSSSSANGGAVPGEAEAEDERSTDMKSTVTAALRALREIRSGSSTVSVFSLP

OsSPX4 = target: T5, OsSPX4 (Oryza sativa, UniProt Q10B79); assay: analytical SEC (profile shift with InsP6); assay type: binding; conditions: pH 8.0, 150 mM NaCl
T5 construct: gene SPX4; full-length, N-terminal 6xHis tag removed by drICE protease; E. coli BL21(DE3)
T5 sequence (Q10B79 1-320): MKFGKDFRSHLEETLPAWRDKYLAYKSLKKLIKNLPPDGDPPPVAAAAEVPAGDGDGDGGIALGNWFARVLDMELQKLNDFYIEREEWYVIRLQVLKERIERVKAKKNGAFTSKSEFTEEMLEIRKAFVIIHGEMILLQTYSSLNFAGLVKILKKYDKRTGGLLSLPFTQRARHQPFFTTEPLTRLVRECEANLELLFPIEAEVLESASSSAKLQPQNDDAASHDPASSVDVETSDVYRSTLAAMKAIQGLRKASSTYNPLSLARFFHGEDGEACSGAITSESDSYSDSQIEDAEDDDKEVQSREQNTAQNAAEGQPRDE

[2] = target: T6, SPX2^1–280/PHR2^225–362 (rice) (Oryza sativa, UniProt Q6Z784, L28A); assay: co-expression coupled Ni-NTA pull-down (InsP6-dependent SPX2-PHR2 association); assay type: biochemical; conditions: 1 mM InsP6, pH 8.0, 150 mM NaCl; indirect read-out
T6 construct: untagged full-length SPX2 (residues 1-280) co-expressed with 8xHis-tagged PHR2 225-362 in E. coli; 2:2 complex; with Protein PHOSPHATE STARVATION RESPONSE 2

[3] = target: T7, SPX2^1–280/PHR2^225–362 (rice) (Oryza sativa, UniProt Q6Z784, Y25A); assay: as above; assay type: biochemical; conditions: 1 mM InsP6, pH 8.0, 150 mM NaCl; indirect read-out
T7 construct: untagged full-length SPX2 (residues 1-280) co-expressed with 8xHis-tagged PHR2 225-362 in E. coli; 2:2 complex; with Protein PHOSPHATE STARVATION RESPONSE 2

[4] = target: T8, SPX2^1–280/PHR2^225–362 (rice) (Oryza sativa, UniProt Q6Z784, Y25F); assay: as above; assay type: biochemical; conditions: 1 mM InsP6, pH 8.0, 150 mM NaCl; indirect read-out
T8 construct: untagged full-length SPX2 (residues 1-280) co-expressed with 8xHis-tagged PHR2 225-362 in E. coli; 2:2 complex; with Protein PHOSPHATE STARVATION RESPONSE 2

[5] = target: T9, SPX2^1–280/PHR2^225–362 (rice) (Oryza sativa, UniProt Q6Z784, K29A); assay: as above; assay type: biochemical; conditions: 1 mM InsP6, pH 8.0, 150 mM NaCl; indirect read-out
T9 construct: untagged full-length SPX2 (residues 1-280) co-expressed with 8xHis-tagged PHR2 225-362 in E. coli; 2:2 complex; with Protein PHOSPHATE STARVATION RESPONSE 2

AtSPX2 = target: T10, AtSPX2 (Arabidopsis thaliana, UniProt O48781); assay: analytical SEC (profile shift with InsP6); assay type: binding; conditions: pH 8.0, 150 mM NaCl
T10 construct: gene SPX2; full-length, N-terminal 6xHis tag removed by drICE protease; E. coli BL21(DE3)
T10 sequence (O48781 1-287): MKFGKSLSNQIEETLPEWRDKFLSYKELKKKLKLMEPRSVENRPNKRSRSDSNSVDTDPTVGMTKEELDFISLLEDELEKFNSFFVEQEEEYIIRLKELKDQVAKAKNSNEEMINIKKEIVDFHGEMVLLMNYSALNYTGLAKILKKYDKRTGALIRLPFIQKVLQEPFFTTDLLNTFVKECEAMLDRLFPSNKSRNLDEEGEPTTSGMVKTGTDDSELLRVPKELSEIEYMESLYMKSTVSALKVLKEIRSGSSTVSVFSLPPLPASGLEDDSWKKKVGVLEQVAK

[6] = target: PHR2 MYB domain (crystal) (Oryza sativa, UniProt B8B5N8 180-313); assay: X-ray crystallography, 2.7 A; EMSA: 10 nM FAM-DNA, 0.3375-0.8 uM PHR2, 25 mM Tris-HCl pH 8.0, 150 mM NaCl, 5 mM DTT, 10% glycerol, 200 ng/ml heparin, 4 C, 30 min; crystal: 13% PEG 3350, 0.1; conditions: protein: recombinant; tags: C-terminal 8xHis (general PHR2 cloning); chain copies: 2; 5' overhang 1 nt on each strand, 15 bp
PHR2 MYB-CC K292D = PHR2 MYB-CC K292D (Oryza sativa, UniProt B8B5N8 225-362, K292D); assay: EMSA; EMSA: 10 nM FAM-DNA, 0.3375-0.8 uM PHR2, 25 mM Tris-HCl pH 8.0, 150 mM NaCl, 5 mM DTT, 10% glycerol, 200 ng/ml heparin, 4 C, 30 min; crystal: 13% PEG 3350, 0.1; conditions: protein: recombinant; tags: C-terminal 8xHis; chain copies: 2; blunt, 30 bp
[7] = target: T11, His-tagged PHR2^225–362 (rice PHR2, MYB domain and CC domain) (rice (Oryza sativa), UniProt Q6Z156 225-362); assay: AUC; sedimentation velocity of the purified SPX2/PHR2 complex, 25 mM Tris-HCl pH 8.0, 150 mM NaCl, 1 mM InsP6, 18 °C, 0.7 mg ml^-1; conditions: both partners purified
T11 construct: pET21b, C-terminal 8×His tag; codon-optimised synthetic cDNA; also called PHR2-His; source: E. coli BL21(DE3), co-expressed with SPX2; not shown: 8×His, C-terminal, kept

[8] = target: the molecule itself; assay: crystal structure; mH2A1.1^181–366-tagged SPX2^1-202/∆47-59 / InsP6 / PHR2^225–362 ternary complex, 10 mM InsP6 supplied, hanging drop, 18 °C, 3.1 Å
[9] = target: the molecule itself; assay: cross-linking; mixture of PHR2^225–362-His complexes with SPX2-flag homodimer and SPX2/SPX2-flag heterodimer from the tandem pull-down; about 30 μM with 200 μM M2M, room temperature, 30 min; SDS-PAGE with or without 100 mM DTT
[10] = target: the molecule itself; assay: cross-linking; about 30 μM purified SPX2/PHR2^225–362 complex with 200 μM M2M, room temperature, 30 min, 25 mM Tris–HCl pH 8.0, 150 mM NaCl, 1 mM InsP6; SDS-PAGE with or without 100 mM DTT

T11 sequence (Q6Z156 225-362): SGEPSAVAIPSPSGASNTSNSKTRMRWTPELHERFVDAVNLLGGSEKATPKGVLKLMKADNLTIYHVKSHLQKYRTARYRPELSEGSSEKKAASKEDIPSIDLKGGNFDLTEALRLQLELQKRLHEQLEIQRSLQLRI
T2 sequence (Q6Z784 whole entry K143A/K147A, the tested form may be a part): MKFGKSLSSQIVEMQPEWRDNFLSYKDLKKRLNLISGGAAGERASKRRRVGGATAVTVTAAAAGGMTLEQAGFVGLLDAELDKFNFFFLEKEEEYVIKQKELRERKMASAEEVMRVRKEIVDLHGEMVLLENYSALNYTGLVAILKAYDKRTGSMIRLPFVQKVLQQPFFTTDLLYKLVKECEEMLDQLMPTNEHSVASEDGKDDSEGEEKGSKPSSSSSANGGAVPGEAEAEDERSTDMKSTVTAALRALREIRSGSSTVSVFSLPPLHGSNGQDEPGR
T2 sequence (Q6Z156 225-362 partner): as the sequence (Q6Z156 225-362) above
T9 sequence (Q6Z784 whole entry K29A, the tested form may be a part): as the sequence (Q6Z784 whole entry K143A/K147A, the tested form may be a part) above, with K29A, A143K, A147K counted along it
T9 sequence (Q6Z156 225-362 partner): as the sequence (Q6Z156 225-362) above
T6 sequence (Q6Z784 whole entry L28A, the tested form may be a part): as the sequence (Q6Z784 whole entry K143A/K147A, the tested form may be a part) above, with L28A, A143K, A147K counted along it
T6 sequence (Q6Z156 225-362 partner): as the sequence (Q6Z156 225-362) above
Chain of PHR2 MYB-CC K292D (B8B5N8 225-362 K292D): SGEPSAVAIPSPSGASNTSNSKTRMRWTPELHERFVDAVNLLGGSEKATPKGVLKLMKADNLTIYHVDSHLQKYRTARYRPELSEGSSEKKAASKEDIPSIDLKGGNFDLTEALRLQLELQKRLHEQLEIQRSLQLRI
T8 sequence (Q6Z784 whole entry Y25F, the tested form may be a part): as the sequence (Q6Z784 whole entry K143A/K147A, the tested form may be a part) above, with Y25F, A143K, A147K counted along it
T8 sequence (Q6Z156 225-362 partner): as the sequence (Q6Z156 225-362) above
T7 sequence (Q6Z784 whole entry Y25A, the tested form may be a part): as the sequence (Q6Z784 whole entry K143A/K147A, the tested form may be a part) above, with Y25A, A143K, A147K counted along it
T7 sequence (Q6Z156 225-362 partner): as the sequence (Q6Z156 225-362) above
Chain of PHR2 MYB domain (crystal) (B8B5N8 180-313): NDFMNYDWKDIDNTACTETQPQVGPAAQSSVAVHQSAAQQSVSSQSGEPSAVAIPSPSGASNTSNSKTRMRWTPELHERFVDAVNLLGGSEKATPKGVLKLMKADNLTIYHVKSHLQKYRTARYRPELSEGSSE

O=P(O)(O)O[C@H]1[C@H](OP(=O)(O)O)[C@@H](OP(=O)(O)O)[C@H](OP(=O)(O)O)[C@@H](OP(=O)(O)O)[C@H]1OP(=O)(O)O [InsP6]
analytical SEC (profile shift with InsP6) (AtSPX4): their SEC profiles differ strongly in the presence of InsP6
co-expression coupled Ni-NTA pull-down (InsP6-dependent SPX2-PHR2 association) [1]: strongly reduced or abolished by the Y25F, Y25A, L28A, K29A, or K143A/K147A substitutions of SPX2
analytical SEC (profile shift with InsP6) (OsSPX1): their SEC profiles differ strongly in the presence of InsP6
analytical SEC and AUC (change of oligomeric state) (OsSPX2^1-267/Δ47-64): InsP6 binding appears to stabilize the domain into a monomeric state
analytical SEC (profile shift with InsP6) (OsSPX4): their SEC profiles differ strongly in the presence of InsP6
co-expression coupled Ni-NTA pull-down (InsP6-dependent SPX2-PHR2 association) [2]: strongly reduced or abolished by the Y25F, Y25A, L28A, K29A, or K143A/K147A substitutions of SPX2
co-expression coupled Ni-NTA pull-down (InsP6-dependent SPX2-PHR2 association) [3]: strongly reduced or abolished by the Y25F, Y25A, L28A, K29A, or K143A/K147A substitutions of SPX2
co-expression coupled Ni-NTA pull-down (InsP6-dependent SPX2-PHR2 association) [4]: strongly reduced or abolished by the Y25F, Y25A, L28A, K29A, or K143A/K147A substitutions of SPX2
co-expression coupled Ni-NTA pull-down (InsP6-dependent SPX2-PHR2 association) [5]: strongly reduced or abolished by the Y25F, Y25A, L28A, K29A, or K143A/K147A substitutions of SPX2
analytical SEC (profile shift with InsP6) (AtSPX2): their SEC profiles differ strongly in the presence of InsP6

B1: P1BS crystal DNA (dsDNA)
DNA 1: GCTTGAGGATATCCGA
DNA 2: CTCGGATATCCTCAAG
binding result [6]: binds

B2: FAM P1BS EMSA probe (dsDNA)
DNA 1: AAGCTTGAATATGCAATGGAATATGCTTAG
DNA 2: CTAAGCATATTCCATTGCATATTCAAGCTT
binding result (PHR2 MYB-CC K292D): no binding

B3: mH2A1.1^181–366-tagged SPX2^1-202/∆47-59 (domain or fragment, rice (Oryza sativa), UniProt Q6Z784 1-202, looked up)
chain: MKFGKSLSSQIVEMQPEWRDNFLSYKDLKKRLNLISGGAAGERASKAAAAGGMTLEQAGFVGLLDAELDKFNFFFLEKEEEYVIKQKELRERKMASAEEVMRVRKEIVDLHGEMVLLENYSALNYTGLVKILKKYDKRTGSMIRLPFVQKVLQQPFFTTDLLYKLVKECEEMLDQLMPTNEHSVASEDG
notes: rice (Oryza sativa) SPX2, residues 1-202 with residues 47-59 (R47-T59) deleted; also called crystallized construct
stoichiometry N [7]: 1 SPX2:PHR2 ratio (2:2)
stoichiometry N [8]: 2

B4: full-length rice SPX2 (SPX2^1–280), untagged (natural protein, rice (Oryza sativa), UniProt Q6Z784 1-280, looked up)
chain: MKFGKSLSSQIVEMQPEWRDNFLSYKDLKKRLNLISGGAAGERASKRRRVGGATAVTVTAAAAGGMTLEQAGFVGLLDAELDKFNFFFLEKEEEYVIKQKELRERKMASAEEVMRVRKEIVDLHGEMVLLENYSALNYTGLVKILKKYDKRTGSMIRLPFVQKVLQQPFFTTDLLYKLVKECEEMLDQLMPTNEHSVASEDGKDDSEGEEKGSKPSSSSSANGGAVPGEAEAEDERSTDMKSTVTAALRALREIRSGSSTVSVFSLPPLHGSNGQDEPGR
notes: rice (Oryza sativa) SPX2 (OsSPX2), full length, residues 1-280; pBB75 vector without any tag; also called OsSPX2; source: E. coli BL21(DE3), co-expressed with PHR2
stoichiometry N [7]: 1 SPX2:PHR2 ratio (2:2)

B5: SPX2^K106C-flag (natural protein, rice (Oryza sativa), UniProt Q6Z784 1-280, looked up)
chain: B4 chain with K106C
notes: rice (Oryza sativa) SPX2, residues 1-280, K106C; source: Ni-NTA pull-down and flag pull-down in tandem; not shown: 3×flag, N-terminal, kept
binding result [9]: binds

B6: SPX2^1-280_K106C (natural protein, rice (Oryza sativa), UniProt Q6Z784 1-280, looked up)
chain: B4 chain with K106C
notes: rice (Oryza sativa) SPX2, residues 1-280, K106C; also called SPX2^K106C
binding result [10]: binds
